Reference: the NIST ThermoML archive (doi:10.1021/je060271a)

Details: 283.15 K, Liquid, Vibrating tube method

CCCCC(=O)OCC(COC(=O)CCCC)(COC(=O)CCCC)COC(=O)CCCC [pentaerythritol tetrapentanoate]
Details	mass density [kg/m3]
3984.4 kPa	1029.5
4007.1 kPa	1029.3
4030 kPa	1029.5
4053.3 kPa	1029.5
4081.1 kPa	1029.5
4104.4 kPa	1029.6
4128.5 kPa	1029.5
4157.3 kPa	1029.6
4181.3 kPa	1029.5
4205.4 kPa	1029.5
4234.9 kPa	1029.5
4260 kPa	1029.6
4284.7 kPa	1029.5
4314.9 kPa	1029.7
4340 kPa	1029.7
4366.5 kPa	1029.7
4393.7 kPa	1029.7
4426 kPa	1029.7
4453.1 kPa	1029.7
4480.4 kPa	1029.8
4507.9 kPa	1029.8
4542.4 kPa	1029.9
4572 kPa	1029.7
4602.1 kPa	1029.7
4632.8 kPa	1029.7
4669.8 kPa	1029.8
4701.7 kPa	1030
4733 kPa	1029.9
4763.3 kPa	1029.9
4792.9 kPa	1029.8
4797.4 kPa	1029.9
4798.1 kPa	1029.9
4800.3 kPa	1029.9
4801 kPa	1029.8
4803.1 kPa	1030
4805.2 kPa	1029.9
4805.4 kPa	1030
4807.6 kPa	1029.9
4808.8 kPa	1029.9
4810.7 kPa	1029.9
4811.8 kPa	1029.9
4812.5 kPa	1029.9
4813.1 kPa	1029.9
4813.3 kPa	1030
4813.7 kPa	1029.9
4814 kPa	1030
4814.2 kPa	1029.9
4814.4 kPa	1029.9
4819 kPa	1030
4836.2 kPa	1029.9
4855.7 kPa	1029.9
4877.5 kPa	1029.9
4899 kPa	1030
4924.1 kPa	1030
4945.9 kPa	1029.9
4969.3 kPa	1030
4990.9 kPa	1030
5013.2 kPa	1030
5040.4 kPa	1030
5062.7 kPa	1030
5085.9 kPa	1030
5113.1 kPa	1030.1
5136.1 kPa	1030.1
5159.8 kPa	1030
5188.5 kPa	1030.1
5213.2 kPa	1030.2
5238.3 kPa	1030.2
5263.4 kPa	1030
5289.6 kPa	1030.3
5314.9 kPa	1030.1
5344.8 kPa	1030.1
5370.4 kPa	1030.2
5395.8 kPa	1030.2
5426.8 kPa	1030.1
5453.3 kPa	1030.3
5479.6 kPa	1030.3
5512.1 kPa	1030.3
5539.8 kPa	1030.4
5567.4 kPa	1030.3
5595.3 kPa	1030.4
